Results published in US20080280890A1, “HYDROXYLAMINE COMPOUNDS AND METHODS OF THEIR USE” (priority 2007, published 2008).
Where a name gives a salt, the structure may show the parent alone.

Key:
[1] = tested on: Angiogenesis in CAM model; assay: Neovascularization on the CAM (chick chorioallantoic membrane model of angiogenesis); assay type: in vivo, chicken; conditions: for Percent inhibition of angiogenesis in CAM model at 30 ug: unit assumed
Protocol: In vivo neovascularization was examined by the method previously described by Auerbach et al. (J. Dev. Biol. 41:391-394 (1974)). Ten-day old chicken embryos were purchased from Spafas, Inc. (Preston, Conn.) and were incubated at 37° C. with 55% relative humidity. In the dark, with the aid of a candling lamp, a small hole was punctured in the shell concealing the air sac with a hypodermic needle. A second hole was punctured in the shell on the broadside of the egg directly over an […] portion of the embryonic membrane, as observed during candling. An artificial air sac was created beneath the second hole by applying gentle vacuum to the first hole using a small rubber squeeze bulb. The vacuum caused the chorioallantoic membrane (CAM) to separate from the shell.
A window, approximately 1.0 cm^2, was cut in the shell over the dropped CAM with the use of a small crafts grinding wheel (Dremel, Division of Emerson Electric Company Racine, Wis.). The window allowed direct access to the underlying CAM.
A pro-angiogenic agent was added to induce new blood vessel branches on the CAM of 10-day old embryos. Filter disks of #1 filter paper (Whatman International, United Kingdom) were punched using a small puncher and were soaked in 3 mg/mL cortisone acetate (Sigma, St. Louis, Mo.) in a solution (95% ethanol and water). The disks were subsequently air dried under sterile conditions. The disks were then suspended in PBS (Phosphate Buffered Saline) and placed on growing CAMs. Filters treated with TP-H (TEMPOL-H) or TEMPOL and/or H2O2 or TP-H and/or bFGF or VEGF were placed on the first day of the 3-day incubation.
For inducing angiogenesis, sterile filter disks were saturated with bFGF (1 μg/ml) (Life Technologies, Gaithersburg, Md.) or other pro-angiogenesis factors and control disks were saturated with PBS without Calcium and Magnesium. […]
Using sterile forceps one filter/CAM was placed from the window. The window was sealed with Highland brand transparent tape.
After 24-48 hr, 10-25 ul of test agent was injected intravenously or added topically into the CAM membrane. Eight-Ten eggs/treatment group were used.
CAM tissue directly beneath filter disk was harvested from embryos treated 48 hours prior with compound or control. Tissues were washed three times with PBS. Sections were placed in a 35-mm petri dish (Nalge Nunc, Rochester, N.Y.) and examined under a SV6 stereomicroscope (Karl Zeiss, Thornwood, N.Y.) at 50× magnification.
CAM sections from Petri dish were examined using SV6 stereomicroscope (Karl Zeiss) at 50× magnification. Digital images of CAM sections from Petri dish were collected using a 3-CCD color video camera system (Toshiba America, New York, N.Y.). These images were analyzed using Image-Pro Plus software (Media Cybernetics, Silver Spring, Md.).
The number of branch points in blood vessels within the circular region superimposed to the area of a filter disk was counted for each section. After incubation at 37° C. with 55% relative humidity for 3 days, the CAM tissue directly beneath each filter disk was resected from control and treated CAM samples. Tissues were washed three times with PBS. Sections were placed in a 35-mm Petri dish (Nalge Nunc; Rochester, N.Y.) and were examined under a SV6 stereomicroscope (Karl Zeiss; Thornwood, N.Y.) at 50× magnification. Digital images of CAM sections adjacent to filters were collected using a 3-CCD color video camera system (Toshiba America; New York, N.Y.) and analyzed with the Image-Pro Plus software (Media Cybernetics; Silver Spring, Md.).
The number of vessel branch points contained in a circular region equal to the area of a filter disk was counted for each section. Percent inhibition data are expressed as the quotient of the experimental value minus the negative control value divided by the difference between the positive control value and the negative control value. […]

[2] = tested on: Human neuroblastoma SKN-SH cells, resistant to doxorubicin; assay: Chemoresistance: cancer cell viability (MTT) in presence or absence of doxorubicin; assay type: cell-based; conditions: compound 50 ug/mL, MTT
Description: A method for evaluating a compound's propensity to overcome cancer cell chemoresistance is described in “Caspase Inhibition Switches Doxorubicin-Induced Apoptosis To Senescence”, Abdelhadi Rebbaa, Xin Zheng, Pauline M Chou and Bernard L Mirkin, Oncogene (2003) 22, 2805-2811. Resistant human cancer cells to doxorubicin were selected by stepwise exposure to drug concentrations ranging from 10^−9 M-10^−6 M over 3 months. They were then subjected to treatment with the doxorubicin alone or in combination with hydroxylamine compounds 1-12, 16, 20, and 21 (Table 4). The cells were incubated with the drugs for 72 hours, and cell viability was measured by the MTT assay. Additionally, molecular pathways that might be associated with increased chemo-responsiveness with these compounds were investigated. p Cancer Cell Viability Data for certain hydroxylamines in the presence or absence of Doxorubicin is listed in Table 4.
A method for evaluating a compound's propensity to overcome cancer cell chemoresistance is described in “Caspase Inhibition Switches Doxorubicin-Induced Apoptosis To Senescence”, Abdelhadi Rebbaa, Xin Zheng, Pauline M Chou and Bernard L Mirkin, Oncogene (2003) 22, 2805-2811. Human neuroblastoma SKN-SH cells (ATCC Cat. No. HTB-11) were cultured in Dulbecco's Modified Eagles Medium (DMEM; Gibco, Grand Island, N.Y.) supplemented with 10% fetal bovine serum (FBS; Sigma-Aldrich, St. Louis, Mo.) at 37° C. in a 95% Air/5% CO2 atmosphere. Resistant human cancer cells to doxorubicin were selected by stepwise exposure to drug concentrations ranging from 10^−9M-10^−6M over 3 months. They were then subjected to treatment with the doxorubicin alone or in combination with hydroxylamine compounds. The cells were incubated with the drugs for 72 hours, and cell viability was measured by the MTT assay. This consists of adding 10 μl/well of MTT (5 mg/ml solution) and incubation for 4 h at 37° C. The precipitate formed is then solubilized by addition of 100 μl of HCL 0.5 N/Isopropanol and incubation for 15 hours at 37° C. The optical density is measured at 570 nm and cell survival is estimated by comparison to untreated cells. Each point represents 4 wells data represent average ± SE. Additionally, molecular pathways that might be associated with increased chemo-responsiveness with these compounds were investigated.
Cytotoxic activity of doxorubicin and hydroxylamine analogs were quantitatively determined by a colorimetric assay utilizing 3-(4,5-dimethyl-2-thiazolyl) 2,5-diphenyl tetrazolium bromide (MTT; Sigma-Aldrich, St. Louis, Mo.). Briefly, cells were seeded at 10^4 cells/well in 96-well plates and maintained in culture for 24 hours at 37° C. in DMEM supplemented with 10% FBS. Drugs were added to designated wells and cells were incubated for […], following which MTT (10 μL of 5 mg/ml solution) was added to each 100 μl well and incubated for 4 hours at 37° C. The cells were solubilized by incubation with 100 μl of HCl 0.5N in isopropanol for 15 hours at 37° C. The optical density of this solution was measured at 570 nm and the percentage of viable cells estimated by comparison with untreated control cells.

Row | Molecule | Percent inhibition of angiogenesis in CAM model at 30 ug ([1]; 30 ug) | Mean OD (×10^−3), cancer cell viability ([2]; Dox. 10^−6 M present (+)) | Mean OD (×10^−3), cancer cell viability ([2]; Dox. absent (−)) | inhibition in vivo at 0.03 mg ([1]; Gallus gallus, 30 ug) | inhibition in vivo at 0.3 mg ([1]; Gallus gallus, 300 ug) | CAM data % Inhibition ([1]; 300 ug)
1 | 1-Hydroxy-4-(4-Flurophenyl)-2,2,6,6-tetramethylpiperidine [Compound 62] | 43.8% | 40.25 ×10^−3 | 184.75 ×10^−3 |  |  | 
2 | CC1(C)C=C(CO)C(C)(C)N1O [Compound 8] | 88% | 197.25 ×10^−3 | 392.50 ×10^−3 |  |  | 
3 | CC1(C)CC(Oc2nsnc2Cl)CC(C)(C)N1O.Cl [Compound 13, 4-(4-chloro-1,2,5-thiadiazol-3-yloxyl)-1-hydroxyl-2,2,6,6-tetramethylpiperidine] | 51.2% |  |  |  |  | 
4 | CC1(C)CC(NC(=O)CCN2CCOCC2)CC(C)(C)N1O.Cl [Compound 26, N-(1-hydroxy-2,2,6,6-tetramethylpiperidin-4-yl)-3-morpholinopropanamide] | 72% | 261.50 ×10^−3 | 1056.33 ×10^−3 |  |  | 
5 | CC1(C)CC(c2nn[nH]n2)CC(C)(C)N1O.Cl [Compound 30, 1-hydroxy-2,2,6,6-tetramethyl-4-(2H-tetrazol-5-yl)piperidine] | 90.4% | 310.00 ×10^−3 | 1301.25 ×10^−3 |  |  | 
6 | CC1(C)CC(NC(=O)C2CC2)CC(C)(C)N1O.Cl [Compound 31, N-(1-hydroxy-2,2,6,6-tetramethylpiperidin-4-yl)cyclopropanecarboxamide] | 38.8% | 322.25 ×10^−3 | 1175.25 ×10^−3 |  |  | 
7 | CC1(C)CC(Oc2nsnc2N2CCOCC2)C(C)(C)N1O.Cl (centres unmarked) [Compound 32, 4-(4-(1-hydroxy-2,2,5,5-tetramethylpyrrolidin-3-yloxy)-1,2,5-thiadiazol-3-yl)morpholine] |  | 231.50 ×10^−3 | 985.67 ×10^−3 |  |  | 
8 | CC1(C)CC(CO)CC(C)(C)N1O.Cl [Compound 34, (1-hydroxy-2,2,6,6-tetramethylpiperidin-4-yl)methanol] |  | 302.75 ×10^−3 | 1168.25 ×10^−3 |  |  | 
9 | CC1(C)C=C(CC2CNCCO2)C(C)(C)N1O.Cl.Cl (centres unmarked) [Compound 36] |  | 297.00 ×10^−3 | 1110.75 ×10^−3 |  |  | 
10 | CC1(C)CC(=O)C(C)(C)N1O.Cl [Compound 37, 1-hydroxy-2,2,5,5-tetramethylpyrrolidin-3-one] |  | 366.25 ×10^−3 | 1329.75 ×10^−3 |  |  | 
11 | CC1(C)CC(NC(=O)C2CC2)C(C)(C)N1O.Cl (centres unmarked) [Compound 38, N-(1-hydroxy-2,2,5,5-tetramethylpyrrolidin-3-yl)cyclopropanecarboxamide] |  | 378.50 ×10^−3 | 1202.75 ×10^−3 |  |  | 
12 | COc1ccc(C2=C(c3cc(OC)c(OC)c(OC)c3)C(C)(C)N(O)C2(C)C)cc1C=O [Compound 46, 5-(2,5,-dihydro-4-(3,4,5-trimethoxyphenyl)-1-hydroxy-2,2,5,5-tetramethyl-1H-pyrrol-3-yl)-2-methoxybenzaldehyde] | 45.1% | 32.75 ×10^−3 | 79.00 ×10^−3 |  |  | 
13 | COc1cc(COC2CC(C)(C)N(O)C(C)(C)C2)cc(OC)c1OC.Cl [Compound 48, 1-Hydroxyl-4-(3,4,5-trimethoxybenzyloxy)-2,2,6,6-tetramethylpiperidine] |  | 50.67 ×10^−3 | 1118.00 ×10^−3 |  |  | 
14 | CC1(C)CC(NC(=O)CCCCC2CCSS2)CC(C)(C)N1O (centres unmarked) [Compound 49, 5-(1,2-dithialan-3-yl)-N-(1-hydroxy-2,2,6,6-tetramethylpiperidin-4-yl)pentanamide] |  | 195.00 ×10^−3 | 1330.25 ×10^−3 |  |  | 
15 | COc1cc(C2=CC(C)(C)N(O)C(C)(C)C2)cc(OC)c1OC.Cl [Compound 50, 1-Hydroxy-2,3,6-trihydro-4-(3,4,5-trimethoxyphenyl)-2,2,6,6-tetramethylpiperidine] | 92.3% | 54.50 ×10^−3 | 1226.33 ×10^−3 |  |  | 
16 | CC(C)c1nsnc1OCC1=CC(C)(C)N(O)C1(C)C [Compound 51] | 43% | 71.00 ×10^−3 | 1208.25 ×10^−3 |  |  | 
17 | CN1CCN(c2nsnc2OC2CC(C)(C)N(O)C(C)(C)C2)CC1 [Compound 52] | 68.3% | 195.00 ×10^−3 | 1186.33 ×10^−3 |  |  | 
18 | CC1(C)CC(Oc2nsnc2N2CCN(c3ccccc3)CC2)CC(C)(C)N1O.Cl.Cl [Compound 53, 4-(4-phenylpiperazin-1-yl)-3-[(2,2,6,6-tetramethyl-1-hydroxypiperidinyl)-4-oxy]-1,2,5-thiadiazole] |  | 170.00 ×10^−3 | 1333.75 ×10^−3 |  |  | 
19 | CC1(C)CC(O)CC(C)(C)N1O [TEMPOL-H HCl, 2,2,6,6-tetramethylpiperidine-1,4-diol, reference compound] |  |  |  | 43 ± 10% |  | 
20 | O=C1O[C@H]([C@@H](O)CO)C(O)=C1O [Vitamin C, reference compound] |  |  |  |  | 15 ± 7% | 
21 | Vitamin E [reference compound] |  |  |  |  |  | 22 ± 6%
